Values quoted from earlier work in patent publication US7419990B2, “Piperidine derivatives as melanocortin-4 receptor agonists” (Merck & Co., Inc., priority 2003, dated 2008).

Columns and labels:
[1] = tested on: erectile dysfunction; settings: for duration of effect / onset of action: after an oral dose; for share of patients with adequate response: oral
[2] = tested on: psychogenic erectile dysfunction

| Molecule | duration of effect [1] | onset of action [1] | share of patients with adequate response [1] | duration of action ([2]; in vivo) | time to onset of erection ([2]; in vivo) | response rate ([2]; injected intramuscularly or subcutaneously) | absorption into the systemic circulation ([2]; oral route) |
| --- | --- | --- | --- | --- | --- | --- | --- |
| Cc1ccc(N(CC2=NCCN2)c2cccc(O)c2)cc1 [phentolamine] | 2 h | 5 to 30 min | 35-40% |  |  |  |  |
| CCCc1nn(C)c2c(=O)[nH]c(-c3cc(S(=O)(=O)N4CCN(C)CC4)ccc3OCC)nc12 [sildenafil] | about 4 hours | 30 to 60 min | about 70% |  |  |  |  |
| Ac-Nle-c[Asp-His-DPhe-Arg-Trp-Lys]-NH2 [MT-II] |  |  |  | approximately 2.5 hours | 10 to 20 min | 75% | not absorbed into the systemic circulation |
